Data: patent EP0265185A2, “Cephalosporins, processes for their preparation and pharmaceutical compositions containing them” (BEECHAM GROUP PLC, priority 1986, dated 1988)
Values after ≈ are worked out from the molar mass of the structure shown. Counter-ions that a name gives are not always drawn. Like-named read-outs stand apart in the source and are kept apart here.

Key:
Enterobacter cloacae P99 = assay: Minimum inhibitory concentration by serial dilution in agar; type: cell-based
Procedure: (§1) Minimum inhibitory Concentration (MIC) values of compounds of the invention against Enterobacter cloacae P99 and Pseudomonas aeruginosa 10662 were determined by serial dilution in agar. The plates were inoculated with 104 colony forming units and incubated overnight at 37°C. The MIC values recorded in Tables 1 and 2 were the lowest concentration of antibiotic to inhibit growth.

[1] = tested on: Pseudomonas aeruginosa 10662; assay: as above; type: cell-based
Procedure: as §1

[2] = Pseudomonas aeruginosa 10662, serial dilution in agar, inoculated with 104 colony forming units, incubated overnight at 37°C, lowest concentration to inhibit growth, read-out: MIC

CO/N=C(\C(=O)N[C@@H]1C(=O)N2C(C(=O)O)=C(COC(C)=O)CS[C@H]12)c1csc(N)n1 [Compound A, cefotaxime, reference compound] was tested, and the MIC (Enterobacter cloacae P99) was ≥ 128 µg/mL and the MIC [1, 2] was 16 µg/mL (≈ 35.1 µM).
CCN1CCN(C(=O)N[C@@H](C(=O)N[C@]2(NC=O)C(=O)N3C(C(=O)O)=C(COC(C)=O)CS[C@@H]32)c2ccccc2)C(=O)C1=O [Compound B, 7β-[D-2-[(4-ethyl-2,3-dioxopiperazin-1-yl)carbonylamino]-2-phenylacetamido]-7α-formamidocephalosporanic acid, sodium salt, reference compound] was tested, and the MIC (Enterobacter cloacae P99) was 16 µg/mL and the MIC [1, 2] was 16 µg/mL.
CCN1CCN(C(=O)N[C@@H](C(=O)N[C@]2(NC=O)C(=O)N3C(C(=O)[O-])=C(COC(=O)c4ccc(O)c(O)c4)CS[C@@H]32)c2ccccc2)C(=O)C1=O.[Na+] [Example 1, Sodium (6R,7R)-3-(3,4-Dihydroxybenzoyloxy)methyl-7-[(R)-2-(4-ethyl-2,3-dioxopiperazin-1-yl)carbonylamino-2-phenylacetamido]-7-formamidoceph-3-em-4-carboxylate] was tested, and the MIC (Enterobacter cloacae P99) was 0.12 µg/mL and the MIC ([1]; Pseudomonas aeruginosa, 10662) was ≤ 0.03 µg/mL.
CCN1CCN(C(=O)N[C@@H](C(=O)N[C@]2(NC=O)C(=O)N3C(C(=O)[O-])=C(CN=[N+]=[N-])CS[C@@H]32)c2ccccc2)C(=O)C1=O.[Na+] [Example 3, Sodium (6R,7R)-3-Azidomethyl-7-[(R)-2-(4-ethyl-2,3-dioxopiperazin-1-ylcarbonylamino)-2-phenylacetamido]-7-formamidoceph-3-em-4-carboxylate] showed an MIC (Enterobacter cloacae P99) of 4 µg/mL and an MIC ([1]; Pseudomonas aeruginosa, 10662) of 4 µg/mL.
CCN1CCN(C(=O)N[C@@H](C(=O)N[C@]2(NC=O)C(=O)N3C(C(=O)[O-])=C(CNC(=O)/C=C/c4ccc(OC(C)=O)c(OC(C)=O)c4)CS[C@@H]32)c2ccccc2)C(=O)C1=O.[Na+] [Example 6, Sodium (6R,7R)-3-[(E)-3,4-Diacetoxycinnamoyl]aminomethyl-7-[(R)-2-(4-ethyl-2,3-dioxopiperazin-1-ylcarbonylamino)-2-phenylacetamido]-7-formamido-ceph-3-em-4-carboxylate] was tested, and the MIC (Enterobacter cloacae P99) was 0.5 µg/mL and the MIC ([1]; Pseudomonas aeruginosa, 10662) was 0.12 µg/mL.
For CCN1CCN(C(=O)N[C@@H](C(=O)N[C@]2(NC=O)C(=O)N3C(C(=O)[O-])=C(CNC(=O)c4ccc(O)c(O)c4)CS[C@@H]32)c2ccccc2)C(=O)C1=O.[Na+] [Example 7, Sodium (6R,7R)-3-(3,4-Dihydroxybenzoyl)aminomethyl7-[(R)-2-(4-ethyl-2,3-dioxopiperazin-1-ylcarbonylamino) -2-phenylacetamido]-7-formamido-ceph-3-em-4-carboxylate], the MIC (Enterobacter cloacae P99) was 0.25 µg/mL and the MIC ([1]; Pseudomonas aeruginosa, 10662) was ≤ 0.03 µg/mL.
With CO/N=C(\C(=O)N[C@@H]1C(=O)N2C(C(=O)[O-])=C(COC(=O)c3ccc(O)c(O)c3)CS[C@H]12)c1csc(N)n1.[Na+] [Example 10, Sodium (6R,7R)-7-[2-(2-amino-4-thiazolyl)-2-((Z)-methoxyimino)acetamido]-3-(3,4-dihydroxybenzoyloxy)methylceph-3-em-4-carboxylate] the MIC (Enterobacter cloacae P99) was 4 µg/mL and the MIC ([1]; Pseudomonas aeruginosa, 10662) was 0.12 µg/mL.
